Measurements: patent US11623931B2, “Bicyclic compounds for diagnosis and therapy” (AC IMMUNE SA, priority 2016, dated 2023)

Key:
[1] = target: T1, aSyn aggregates on PD sections (Homo sapiens, UniProt P37840); assay: Assay 1 (fluorescence based assay): direct staining of human Parkinson's disease brain sections; assay type: binding; parameters: key: − (No); +/− (very weak); + (weak); ++ (good); +++ (strong); conditions: staining intensity; compound 100 μM, frozen amygdala sections, PD Braak stage V-VI
T1 construct: 20 μm frozen sections from amygdala were purchased from an external provider (Tissue Solutions Ltd.); tissue Tissue Solutions Ltd; host or cells: human PD amygdala, frozen sections, Braak stage V-VI
Source text: Assay 1 (Fluorescence Based Assay):
(§1) Direct Staining of Compounds of this Invention to Human Parkinson's Disease Brain Sections
(§2) 20 μm frozen sections from amygdala were purchased from an external provider (Tissue Solutions Ltd.). Donors were diagnosed with PD, Braak stage V-VI (Braak et al., Neurobiol. Aging, 2003, 24, 197-211) and thus with confirmed aSyn pathology. PD donors, Braak stage V-VI with mixed pathology, containing aSyn aggregates as well as Aβ plaques, were also used in this assay. Sections were kept at −80° C. until start of the experiment.
(§3) Brain sections were encircled with pap pen liquid blocker to reduce the volume of solution for the different incubations. Sections were fixed for 15 min at 4° C. with 4% paraformaldehyde and washed three times for 5 minutes with PBS (phosphate buffered saline) at room temperature. Test compounds were incubated on the sections at 100 μM in 50% ethanol in water for 30 min at room temperature, followed by three washes of 5 minutes with PBS. Sections were then saturated and permeabilized in blocking buffer (PBS, 10% NGS, 0.25% Triton) for 1 hour at room temperature and then incubated for 2 hours at room temperature with the primary antibodies against aSyn: aSyn-211 (SantaCruz Biotechnology sc-12767) or aSyn-pS129 (Abcam AB51253), and primary antibody against AR, 4G8, (Covance, SIG-39220). All primary antibodies diluted 1/250 in PBS, 5% NGS, 0.25% Triton. After three washes in PBS, the sections were incubated for 30 minutes at room temperature with a secondary anti-mouse antibody labeled with AlexaFluor555 (Invitrogen A21422) or anti-rabbit antibody labeled with AlexaFluor555 (Invitrogen A21428) and further washed three times in PBS. To reduce auto-fluorescence of the tissue, the sections were incubated in a solution of 0.1% Sudan Black (Sigma 199664) in 70% ethanol for 15 min at room temperature, followed by four washes with PBS and mounted under cover slips using ProLong Gold Antifade reagent (Invitrogen P36930).
(§4) Sections were analyzed on the Nikon Eclipse Ti microscope to detect staining and imaged using Nikon DS-Fi2 camera and NIS-Element AR4.13.1 software.

[2] = system: Aβ plaques on PD sections with mixed pathology; assay: Assay 1 (fluorescence based assay): direct staining of PD brain sections with mixed pathology; assay type: binding, human; parameters: key: − (No); +/− (very weak); + (weak); ++ (good); +++ (strong); conditions: staining intensity; compound 100 μM, frozen amygdala sections, PD Braak stage V-VI with aSyn aggregates and Aβ plaques
Protocol: as §1, §2, §3, §4

Row | SMILES | Staining of aSyn aggregates on PD sections [1] | Staining of Aβ plaques on PD sections with mixed pathology [2]
1 | F[C@H]1CCCN(c2ccc(-c3nc4ncc(-c5cccnc5)cc4s3)cn2)C1 [Example 101] | ++ | +
2 | Nc1ccc(-c2cc3ccc(-c4ccc(F)nc4)nc3s2)cn1 [Example 105] | +++ | ++
3 | CNc1ccc(-c2cc3ccc(-c4ccc(F)nc4)nc3s2)cc1F [Example 106] | +++ | +++
4 | Fc1ncccc1-c1ccc2sc(-c3ccc(N4CCCC4)nc3)nc2n1 [Example 108] | ++ | +/−
5 | Fc1ccc(-c2ccc3sc(-c4ccc(N5CCCC5)nc4)nc3n2)cn1 [Example 109] | ++ | +/−
6 | Fc1nc(N2CCCC2)ccc1-c1ccc2cc(-c3cncnc3)sc2n1 [Example 110] | + | +++
7 | CNc1ccc(-c2cc3ccc(-c4ccc(N5CC[C@@H](F)C5)nc4)nc3s2)cc1F [Example 111] | +++ | +++
8 | F[C@H]1CCN(c2ccc(-c3ccc4cc(-c5cccnc5)sc4n3)cn2)C1 [Example 112] | + | ++
9 | F[C@H]1CCCN(c2ccc(-c3nc4nc(-n5ccnc5)ccc4s3)cn2)C1 [Example 132] | ++ | +/−

Now from value to molecule, other results behind:

Row | Staining of aSyn aggregates on PD sections [1] | SMILES | Staining of Aβ plaques on PD sections with mixed pathology [2]
10 | + | CNc1ccc(-c2cc3ccc(-c4ccc(N5CC[C@H](F)C5)nc4)nc3s2)cc1F [Example 113] | ++
11 | +++ | F[C@@H]1CCN(c2ccc(-c3ccc4cc(-c5cn[nH]c5)sc4n3)cn2)C1 [Example 114] | +++
12 | + | O=C1NCCc2nc(-c3ccc(N4CC[C@H](F)C4)nc3)sc21 [Example 118] | +
13 | + | O=C1NCCc2nc(N3CC[C@H](F)C3)sc21 [Example 119] | −
14 | + | F[C@@H]1CCCN(c2ccc(-c3nc4ncc(N5CCOCC5)cc4s3)cn2)C1 [Example 123] | +
15 | + | O=C1COCCN1c1ccc2nc(-c3cnn(CCF)c3)sc2c1 [Example 125] | +
16 | ++ | O=C1CN(CCF)CCN1c1ccc2nc(-c3ccc(N4CCCC4)nc3)sc2c1 [Example 128] | ++
17 | ++ | O=C1c2sc(-c3ccc(N4CC[C@@H](F)C4)nc3)nc2CCN1c1cccnc1 [Example 129] | +++
18 | ++ | O=C1c2sc(-c3ccc(N4CC[C@H](F)C4)nc3)nc2CCN1c1cccnc1 [Example 130] | +++
19 | ++ | N#Cc1ccc2sc(-c3ccc(N4CCCC4)nc3F)nc2n1 [Example 131] | +++
